Experiments:
Test in all cases: relative viability (nuclei count vs DMSO), 5 days (fraction); higher = more cells survive
Venetoclax + Olaparib = compound: CC1(C)CCC(CN2CCN(c3ccc(C(=O)NS(=O)(=O)c4ccc(NCC5CCOCC5)c([N+](=O)[O-])c4)c(Oc4cnc5[nH]ccc5c4)c3)CC2)=C(c2ccc(Cl)cc2)C1 [Venetoclax] + O=C(c1cc(Cc2n[nH]c(=O)c3ccccc23)ccc1F)N1CCN(C(=O)C2CC2)CC1 [Olaparib] (partner 8 µM)
Summary of the method: (§1)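 A single step with final 0.05% Triton X-100, 1% formaldehyde and 1 ug/ml Hoechst fixed the cells and stained nuclei 5 days after treatment. Lung cancer cell lines in 1536-well plates had been treated by pin tool the day after seeding with one drug alone or a fixed anchor-drug dose plus five library-drug doses (not always all listed) in √10 steps, and nuclei were counted on 4× images. Relative viability is the ratio of nuclei in treated wells to nuclei in vehicle wells, taken as the median of duplicate plates.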

Venetoclax + OSI-027 = compound: CC1(C)CCC(CN2CCN(c3ccc(C(=O)NS(=O)(=O)c4ccc(NCC5CCOCC5)c([N+](=O)[O-])c4)c(Oc4cnc5[nH]ccc5c4)c3)CC2)=C(c2ccc(Cl)cc2)C1 [Venetoclax] + COc1cccc2cc(-c3nc([C@H]4CC[C@H](C(=O)O)CC4)n4ncnc(N)c34)[nH]c12 [OSI-027] (partner 0.5 µM)
Summary of the method: as §1

Venetoclax + Phenformin = compound: CC1(C)CCC(CN2CCN(c3ccc(C(=O)NS(=O)(=O)c4ccc(NCC5CCOCC5)c([N+](=O)[O-])c4)c(Oc4cnc5[nH]ccc5c4)c3)CC2)=C(c2ccc(Cl)cc2)C1 [Venetoclax] + N=C(N)NC(=N)NCCc1ccccc1 [Phenformin] (partner 250 µM)
Summary of the method: as §1

Selumetinib + Luminespib = compound: Cn1cnc2c(F)c(Nc3ccc(Br)cc3Cl)c(C(=O)NOCCO)cc21 [Selumetinib] + CCNC(=O)c1noc(-c2cc(C(C)C)c(O)cc2O)c1-c1ccc(CN2CCOCC2)cc1 [Luminespib] (partner 0.01 µM)
Summary of the method: as §1

Cell Line UMC-11 has a relative viability (Venetoclax + Olaparib; first compound 0.01 µM) of 0.401, a relative viability (Venetoclax + Olaparib; first compound 0.03162 µM) of 0.322 and a relative viability (Venetoclax + Olaparib; first compound 0.1 µM) of 0.303. The relative viability (Venetoclax + Olaparib; first compound 0.3162 µM) was 0.379, the relative viability (Venetoclax + Olaparib; first compound 1 µM) was 0.886 and the relative viability (Venetoclax + OSI-027; first compound 0.01 µM) was 0.439. For the same cell line, the relative viability (Venetoclax + OSI-027; first compound 0.03162 µM) was 0.46, the relative viability (Venetoclax + OSI-027; first compound 0.1 µM) was 0.465 and the relative viability (Venetoclax + OSI-027; first compound 0.3162 µM) was 0.461. For the same cell line, the relative viability (Venetoclax + OSI-027; first compound 1 µM) was 0.428, the relative viability (Venetoclax + Phenformin; first compound 0.01 µM) was 0.286 and the relative viability (Venetoclax + Phenformin; first compound 0.03162 µM) was 0.319. For the same cell line, the relative viability (Venetoclax + Phenformin; first compound 0.1 µM) was 0.32, the relative viability (Venetoclax + Phenformin; first compound 0.3162 µM) was 0.291 and the relative viability (Venetoclax + Phenformin; first compound 1 µM) was 0.292. For the same cell line, the relative viability (Selumetinib + Luminespib; first compound 0.02 µM) was 1.14, the relative viability (Selumetinib + Luminespib; first compound 0.06325 µM) was 0.869 and the relative viability (Selumetinib + Luminespib; first compound 0.2 µM) was 1.08. It also gave a relative viability (Selumetinib + Luminespib; first compound 0.6325 µM) of 0.967.
